Assay results reported in patent publication US20250312299A1, “COMPOSITION COMPRISING THIOUREA DERIVATIVE FOR PREVENTION OR TREATMENT OF FIBROTIC DISEASE” (THERASID BIOSCIENCE INC., priority 2022, published 2025).

Key:
Type in all cases: cell-based
HK-2 cells = assay: CCK-8 cell viability assay, kidney cell line (HK-2); details: HK-2 kidney proximal tubular cells, 20 μM, 24 hours, CCK-8, FIG. 3
Protocol: (§1) HK-2 cells, which are kidney cells (proximal tubular cells), were seeded at 1×10^4 per well in a 96 well plate, cultured for 24 hours in a 37° C., 5% CO2 incubator, and then treated with the compound of the present invention (TB-840) at a concentration of 20 μM for 24 hours. After culturing for 24 hours, the cells were treated with 10 μl of CCK-8 solution for 2 hours.

HSP60 [1] = assay: Western blot protein expression of HSP60 in TGF-β treated A549 cells; details: TGF-β 10 ng/ml + compound 20 μM, 24 hours, FIGS. 13 to 15
Excerpt: (§2) In order to confirm the inhibitory effect of the compound of the present invention on the protein expression of fibrosis-related markers, the protein expression of collagen type 1 (type 1 collagen; COL1A1) and fibronectin, which are fibrosis-related markers, and HSP60 was confirmed through Western blot analysis. As a control group, TGF-β (transforming growth factor-β) was used. TGF-β is known to promote the production of extracellular matrix such as collagen and promote fibrosis of tissues.
(§3) A549 cells were seeded at 2.5×10^5 per well in a 6 well plate, cultured for 24 hours in a 37° C., 5% CO2 incubator, and then treated with TGF-β at a concentration of 10 ng/ml and the compound of the present invention (TB-840) at a concentration of 20 μM, and cultured for 24 hours. After collecting the cultured cells, the cell pellet was spun down using a centrifuge (13,000 rpm, 5 min, 4° C.) and then lysed by adding lysis buffer with vortexing for 1 hour at 10-minute intervals, and then cell membrane components, etc. were removed using a centrifuge (13,000 rpm, 20 min, 4° C.). The sample was prepared by measuring according to the protocol using a BCA protein assay kit. […] Thereafter, the primary antibody was reacted overnight, and then the secondary antibody was bound, and the protein expression of COL1A1 and fibronectin was measured using an Azure biosystems (C300) device.

fibronectin [2] = assay: Western blot protein expression of fibronectin in TGF-β treated A549 cells; details: TGF-β 10 ng/ml + compound 20 μM, 24 hours, FIGS. 13 to 15
Excerpt: as §2, §3

fibronectin [3] = assay: RT-qPCR gene expression of fibronectin in TGF-β treated HK-2 cells; details: TGF-β 10 ng/ml + compound 20 μM, 24 hours, FIG. 9
Protocol: as §2, with “gene” for “protein”, “markers,” for “markers, and HSP60”, “RT-qPCR” for “Western blot”
(§4) HK-2 cells were seeded at 2×10^5 per well in a 6 well plate, cultured for 24 hours in a 37° C., 5% CO2 incubator, and then treated with TGF-β at a concentration of 10 ng/ml and the compound of the present invention (TB-840) at a concentration of 20 μM, and cultured for 24 hours. After culturing for 24 hours, the cells were washed twice with phosphate buffered saline (PBS), and then RNA extraction was performed using a RNA-spin™ total RNA extraction kit (iNtRON Biotechnology, Cat no. 17211) protocol. Thereafter, the RNA concentration was measured using a Nanodrop device, and cDNA was synthesized using a Maxime™ RT PreMix (iNtRON Biotechnology, Cat no. 25081) and a MiniAmp™ Termal Cycler device. Thereafter, the gene expression levels of COL1A1 and fibronectin were measured using a QuantStudio 5 Real-Time PCR device.

HSP60 [4] = assay: Western blot protein expression of HSP60 in TGF-β treated LX2 cells; details: TGF-β 10 ng/ml + compound 20 μM, 48 hours, FIGS. 10 to 12
Excerpt: as §2
as §3, with “LX2 cells were” for “A549 cells were”, “seeded at 7.6×10^5 per dish” for “seeded at 2.5×10^5 per well”, “7.6×10^5 per dish in a” for “2.5×10^5 per well in a”, “in a 60 φ dish, cultured for” for “in a 6 well plate, cultured for”, “cultured for 48 hours. After” for “cultured for 24 hours. After”

collagen type 1 (COL1A1) [5] = assay: RT-qPCR gene expression of COL1A1 in TGF-β treated A549 cells; details: TGF-β 10 ng/ml + compound 20 μM, 24 hours, FIG. 6
Protocol: as §2, with “gene” for “protein”, “markers,” for “markers, and HSP60”, “RT-qPCR” for “Western blot”
as §4, with “A549” for “HK-2”, “2.5×10^5” for “2×10^5”

collagen type 1 (COL1A1) [6] = assay: Western blot protein expression of COL1A1 in TGF-β treated A549 cells; details: TGF-β 10 ng/ml + compound 20 μM, 24 hours, FIGS. 13 to 15
Excerpt: as §2, §3

collagen type 1 (COL1A1) [7] = assay: Western blot protein expression of COL1A1 in TGF-β treated HK-2 cells; details: TGF-β 10 ng/ml + compound 20 μM, 48 hours, FIGS. 16 to 18
Excerpt: as §2
as §3, with “HK-2 cells were” for “A549 cells were”, “seeded at 1×10^6 per dish” for “seeded at 2.5×10^5 per well”, “1×10^6 per dish in a” for “2.5×10^5 per well in a”, “in a 60 φ dish, cultured for” for “in a 6 well plate, cultured for”, “cultured for 48 hours. After” for “cultured for 24 hours. After”

collagen type 1 (COL1A1) [8] = assay: RT-qPCR gene expression of COL1A1 in TGF-β treated LX2 cells; details: TGF-β 10 ng/ml + compound 20 μM, 24 hours, FIG. 4
Protocol: as §2, with “gene” for “protein”, “markers,” for “markers, and HSP60”, “RT-qPCR” for “Western blot”
as §4, with “LX2” for “HK-2”, “3.5×10^5” for “2×10^5”

LX2 cells = assay: CCK-8 cell viability assay, liver cell line (LX2); details: LX2 liver (stellate) cells, 20 μM, 24 hours, CCK-8, FIG. 1
Protocol: as §1, with “LX2” for “HK-2”, “liver” for “kidney”, “(stellate” for “(proximal tubular”

collagen type 1 (COL1A1) [9] = assay: RT-qPCR gene expression of COL1A1 in TGF-β treated HK-2 cells; details: TGF-β 10 ng/ml + compound 20 μM, 24 hours, FIG. 8
Protocol: as §2, with “gene” for “protein”, “markers,” for “markers, and HSP60”, “RT-qPCR” for “Western blot”
as §4

fibronectin [10] = assay: Western blot protein expression of fibronectin in TGF-β treated HK-2 cells; details: TGF-β 10 ng/ml + compound 20 μM, 48 hours, FIGS. 16 to 18
Excerpt: as §2
as §3, with “HK-2 cells were” for “A549 cells were”, “seeded at 1×10^6 per dish” for “seeded at 2.5×10^5 per well”, “1×10^6 per dish in a” for “2.5×10^5 per well in a”, “in a 60 φ dish, cultured for” for “in a 6 well plate, cultured for”, “cultured for 48 hours. After” for “cultured for 24 hours. After”

HSP60 [11] = assay: Western blot protein expression of HSP60 in TGF-β treated HK-2 cells; details: TGF-β 10 ng/ml + compound 20 μM, 48 hours, FIGS. 16 to 18
Excerpt: as §2
as §3, with “HK-2 cells were” for “A549 cells were”, “seeded at 1×10^6 per dish” for “seeded at 2.5×10^5 per well”, “1×10^6 per dish in a” for “2.5×10^5 per well in a”, “in a 60 φ dish, cultured for” for “in a 6 well plate, cultured for”, “cultured for 48 hours. After” for “cultured for 24 hours. After”

fibronectin [12] = assay: RT-qPCR gene expression of fibronectin in TGF-β treated LX2 cells; details: TGF-β 10 ng/ml + compound 20 μM, 24 hours, FIG. 5
Protocol: as §2, with “gene” for “protein”, “markers,” for “markers, and HSP60”, “RT-qPCR” for “Western blot”
as §4, with “LX2” for “HK-2”, “3.5×10^5” for “2×10^5”

A549 cells = assay: CCK-8 cell viability assay, lung cell line (A549); details: A549 lung carcinoma cells, 20 μM, 24 hours, CCK-8, FIG. 2
Protocol: as §1, with “A549” for “HK-2”, “lung” for “kidney”, “(lung carcinoma” for “(proximal tubular”, “1.5×10^4” for “1×10^4”

collagen type 1 (COL1A1) [13] = assay: Western blot protein expression of COL1A1 in TGF-β treated LX2 cells; details: TGF-β 10 ng/ml + compound 20 μM, 48 hours, FIGS. 10 to 12
Excerpt: as §2
as §3, with “LX2 cells were” for “A549 cells were”, “seeded at 7.6×10^5 per dish” for “seeded at 2.5×10^5 per well”, “7.6×10^5 per dish in a” for “2.5×10^5 per well in a”, “in a 60 φ dish, cultured for” for “in a 6 well plate, cultured for”, “cultured for 48 hours. After” for “cultured for 24 hours. After”

fibronectin [14] = assay: Western blot protein expression of fibronectin in TGF-β treated LX2 cells; details: TGF-β 10 ng/ml + compound 20 μM, 48 hours, FIGS. 10 to 12
Excerpt: as §2
as §3, with “LX2 cells were” for “A549 cells were”, “seeded at 7.6×10^5 per dish” for “seeded at 2.5×10^5 per well”, “7.6×10^5 per dish in a” for “2.5×10^5 per well in a”, “in a 60 φ dish, cultured for” for “in a 6 well plate, cultured for”, “cultured for 48 hours. After” for “cultured for 24 hours. After”

fibronectin [15] = assay: RT-qPCR gene expression of fibronectin in TGF-β treated A549 cells; details: TGF-β 10 ng/ml + compound 20 μM, 24 hours, FIG. 7
Protocol: as §2, with “gene” for “protein”, “markers,” for “markers, and HSP60”, “RT-qPCR” for “Western blot”
as §4, with “A549” for “HK-2”, “2.5×10^5” for “2×10^5”

CNC(=S)NCc1ccc(OCc2ccccc2)cc1 [TB-840, 1-(4-benzyloxy-benzyl)-3-methyl-thiourea]
cell viability (HK-2 cells): ~100%
protein expression of HSP60 (HSP60 [1]): no change
protein expression of fibronectin compared to the group treated with TGF-β (fibronectin [2]): reduced
gene expression of fibronectin compared to the group treated with TGF-β (fibronectin [3]): reduced
protein expression of HSP60 (HSP60 [4]): no change
gene expression of COL1A1 compared to the group treated with TGF-β (collagen type 1 (COL1A1) [5]): reduced
protein expression of COL1A1 compared to the group treated with TGF-β (collagen type 1 (COL1A1) [6]): reduced
protein expression of COL1A1 compared to the group treated with TGF-β (collagen type 1 (COL1A1) [7]): reduced
gene expression of COL1A1 compared to the group treated with TGF-β (collagen type 1 (COL1A1) [8]): reduced
cell viability (LX2 cells): ~100%
gene expression of COL1A1 compared to the group treated with TGF-β (collagen type 1 (COL1A1) [9]): reduced
protein expression of fibronectin compared to the group treated with TGF-β (fibronectin [10]): reduced
protein expression of HSP60 (HSP60 [11]): no change
gene expression of fibronectin compared to the group treated with TGF-β (fibronectin [12]): reduced
cell viability (A549 cells): ~100%
protein expression of COL1A1 compared to the group treated with TGF-β (collagen type 1 (COL1A1) [13]): reduced
protein expression of fibronectin compared to the group treated with TGF-β (fibronectin [14]): reduced
gene expression of fibronectin compared to the group treated with TGF-β (fibronectin [15]): reduced
